Test results: patent publication US4906468A, “Insulin activity messengers, their antibodies, and thereof” (priority 1986, dated 1990)

Legend:
[1] = system: low Km cAMP phosphodiesterase (PDE) from rat adipocyte particulate fraction; assay: Generation of PDE messenger from liver membranes; extracts assayed for modulation of cAMP phosphodiesterase; assay type: biochemical
Experimental: These were generated from bovine liver particulate fractions by a modification of previously described methods. Particulate fraction was prepared from 100 g of bovine liver, and suspended in […] ammonium bicarbonate, pH 7.4. (Buffer A) at a final concentration of 2-4 mg protein/ml. This solution was incubated with 10 mM for 10 min at 37° C., acidified to pH 4.0 with formic acid and sedimented at 45,000 g for 20 min. An equal volume of chloroform/methanol (2:1) was added to the supernatant, and the upper phase was aspirated and methanol was evaporated.
In the tests the results of which are tabulated above, liver membranes were treated as indicated for 10 min at 37° C., centrifuged and supernatants were extracted and purified up to and including the Dowex 50WX-4 step as described earlier herein under "Experimental Procedures". Partially purified extracts were assayed for ability to modulate cAMP phosphodiesterase. Basal activity was 56.2 pmoles/mg protein^-1 -min^-1.

pyruvate dehydrogenase = assay: Production of pyruvate dehydrogenase modulating activity in crude extracts of plasma membrane derived supernatants; assay type: biochemical
BC3 Hl cells = assay: Incorporation of radiolabel into water soluble products (SAX HPLC Peaks I and II), insulin treated cells; assay type: cell-based, murine; details: 10 nM insulin
Experimental: BC3 Hl cells were cultured at 37° C. in Dubelco's Minimal Essential Medium in the presence of 20% NU serum (Collaborative Research) on collagen coated 10 mm miniwells. Cells (1×10^6 /well) were preincubated with 10 μCi A) [2,6^3 H]myoinositol or B) [1,6^3 H]glucosamine (New England Nuclear) for 20 hours in the presence of 20% Nu Serum. Insulin was added to cells in monolayer in serum free media at a final concentration of 10 nM. Reactions were terminated by removal of media and addition of 1 ml chloroform/methanol/IN HCl (200:100:1), followed by addition of 0.5 ml 10 mM formic acid. Organic and aqueous phases were separated by centrifugation at 500×g for 5 min.
The water soluble labeled products were purified by a modification of a previously described protocol for purification of cAMP phosphodiesterase (PDE) modulators. The aqueous phases were chromatographed on DEAE-Cellulose, eluted with 0.25 TEA-formate, pH 3.75. This fraction was eluted through a C-18 reversed phase sepak in the same buffer. Following lyophilization, the solution was eluted through Dowex 50WX-4 in 50 mM TEA-formate. pH 3.0. […] One ml fractions were counted. The two peaks of insulin stimulated radioactivity coeluted with similarly purified, myocyte derived PDE modulating activities. […]

[2] = system: glycolipid precursor in BC3 Hl cells; assay: Radiolabel in glycolipid precursor (TLC), insulin treated cells; assay type: cell-based, murine
Experimental: (A) [^3 H]inositol and (B) [^3 H]glucosamine labeled cells were treated with or without 10 nM insulin. Following extraction and phase separation, the organic phase were dried under N2, resuspended in chloroform/methanol/H2 O (9:7:2); and spotted on oxalate impregnated Silica gel G plates. These were twice developed in chloroform/acetone/methanol/glacial acetic acid/H2 O (10:4:2:2:1). One cm regions were scraped and radioactivity determined by scintillation counting. Phosphoinositides were identified by iodine staining of standards.
Cells prelabeled with [^3 H]inositol were treated with 10 nM insulin for the designated intervals. Cells were extracted and phase separated as detailed in FIG. 7. Aqueous phases were chromatographed up to and including the SAX HPLC step (upper panel). Results reflect counts from a combination of Peaks I and II. The ratio of counts in these peaks were unchanged over the time course. The precursor residing in the organic phases was identified by the peak on TLC with an Rf =0.22, corresponding to the species depleted by PI-PLC (FIG. 10).

[3] = system: diacylglycerol in BC3 Hl myocytes; assay: Diacylglycerol production, [^3 H]myristic acid labeled myocytes; assay type: cell-based, murine; details: insulin
Experimental: (§1) Myocytes were incubated for 20 hrs. in serum free DMEM with [9,10^3 H] myristic acid (New England Nuclear), complexed 1:1 to bovine serum albumin. Insulin was added to cells in fresh media for the designated intervals, and reactions were stopped by removal of media and addition of 1 ml chloroform/methanol/IN HCl (200:100:1). 0.6 ml H2 O was added and upper aqueous phases were discarded following centrifugation at 500×g for 5 minutes. The lower, organic phases were dried under N2 and resuspended in 1 ml diethyl ether followed by addition of 1 […]. The upper ether phase was aspirated and the lower phase reextracted with 1 ml diethyl ether. The combined ether phases, containing diacylglycerol, were dried under N2, resuspended in chloroform and spotted on silica gel G plates which were preactivated at 60° C. for 1 hr. Plates were twice developed in petroleum ether/diethyl ether/glacia acetic acid (70:30:2). […] Lipids were scraped and radioactivity determined in a liquid scintillation counter.
(§2) The phosphodiesteratic cleavage of a phospolipid by insulin should also be reflected by increased production of diacylglycerol, which could serve as substrate for a diglyceride kinase, producing phosphatidic acid. Myocytes were preincubated with [^3 H]myristic acid and both diacylglycerol and phosphatidic acid labeling were evaluated by thin layer chromatography (FIG. 6).

[4] = system: phosphatidic acid in BC3 Hl myocytes; assay: Phosphatidic acid production, [^3 H]myristic acid labeled myocytes; assay type: cell-based, murine; details: insulin, by 5 minutes
Experimental: as §1, §2

polyphosphoinositides = details: cited from earlier work

Insulin: Monocomponent bovine insulin from Wellcome Laboratores
stimulation of PDE modulating activity / increase in production of messengers from membranes ([1]; after partial purification): 4 fold | PDE Activity ([1]; extracts of liver membranes treated 10 min at 37° C., 1.0 nM insulin, 1.0 μg/ml PI-PLC, basal 56.2): 138.0 pmol mg protein^-1 min^-1 | production of pyruvate dehydrogenase modulating activity (pyruvate dehydrogenase): enhanced | incorporation of [^3 H]inositol into two peaks (I and II) (BC3 Hl cells): increased the incorporation of [^3 H]inositol into two peaks | percent of maximal effect on production of [^3 H]inositol containing products (BC3 Hl cells; 30 sec, Peaks I and II combined): Seventy | time course of [^3 H]inositol incorporation into the precursor ([2]; 10 nM insulin): biphasic | decrease in [^3 H]inositol counts in precursor ([2]; 10 nM insulin, 30 sec): 20% | increase in [^3 H]inositol radioactivity in precursor over control levels ([2]; 10 nM insulin, after 30 sec): 60% | time of hydrolysis of the putative glycolipid precursor and appearance of the products ([2]; insulin dependent): less than 1 min | increase in incorporation of [^3 H]glucosamine in precursor peak ([2]; insulin, 10 min): approximately 40% | increase in incorporation of [^3 H]inositol in precursor peak ([2]; insulin, 10 min): approximately 40% | labeling of other lipids ([2]; insulin, 10 min): no significant change | radioactivity in precursor ([2]; intact cells): rapidly diminished | maximal increase in labeled diacylglycerol over basal ([3]; by 5-10 minutes): 50% | labeled diacylglycerol level ([3]; by 2 minutes): near basal levels | increase in levels of [^3 H]myristate phosphatidic acid [4]: 2 fold | hydrolysis of polyphosphoinositides (polyphosphoinositides): does not stimulate hydrolysis of polyphosphoinositides
